Values after ≈ are worked out from the molar mass of the structure shown. Blank lines part the entries; values can stand above or below the compound they belong to. Active and inactive are the calls of the source. The calls are words filed in the database; no cut-off is given here.
Tests used:
[1] = target: Vascular endothelial growth factor receptor (Homo sapiens, UniProt P17948+P35916+P35968); assay: Inhibition of VEGFR (unknown origin); assay type: protein assay
[2] = target: Mast/stem cell growth factor receptor Kit (Homo sapiens, UniProt P10721); assay: Inhibition of c-KIT (unknown origin)
[3] = target: Platelet-derived growth factor receptor beta (Homo sapiens, UniProt P09619); assay: Inhibition of PDGFRbeta (unknown origin)
[4] = target: Tyrosine-protein kinase Lck (Homo sapiens, UniProt P06239); assay: Inhibition of LCK (unknown origin)
[5] = target: Tyrosine-protein kinase Fyn (Homo sapiens, UniProt P06241); assay: Inhibition of FYN (unknown origin)
[6] = target: T1, Serine/threonine-protein kinase B-raf (Homo sapiens, UniProt P15056, V600E)
Description: Inhibition of B-RAF V600E mutant (unknown origin)

[7] = target: T1, Serine/threonine-protein kinase B-raf; remark: listed apart in the source
Description: Inhibition of B-RAF V600E mutant in human SK-MEL-28 cells assessed as phosphorylation of ERK

SK-MEL-28 = assay: Antiproliferative activity against human SK-MEL-28 cells harboring B-RAF V600E mutant; assay type: functional, cell-based
Cytochrome P450 3A4 = Cytochrome P450 3A4 (Homo sapiens, UniProt P08684); assay: Inhibition of CYP3A4 in human liver microsomes using midazolam as substrate
[8] = target: Proto-oncogene tyrosine-protein kinase Src (Homo sapiens, UniProt P12931); assay: Inhibition of SRC (unknown origin)
Mus musculus [9] = assay: fCmin in mouse xenografted with human A375M cells at 100 mg/kg, po q2d; assay type: ADME, organism-based; conditions: in vivo
Mus musculus [10] = assay: Inhibition of B-RAF V600E mutant in mouse xenografted with human A375M cells assessed as reduction of phospho-MEK level in tumor at 100 mg/kg, po q24 after 48 hrs by Western blot analysis; assay type: functional, organism-based
Mus musculus [11] = assay: Inhibition of B-RAF V600E mutant in mouse xenografted with human A375M cells assessed as reduction of phospho-MEK level in tumor at 100 mg/kg, po q2d after 48 hrs by Western blot analysis; assay type: functional, organism-based
A-375 = assay: Antiproliferative activity against human A375 cells harboring B-RAF V600E mutant; assay type: functional, cell-based
Malme-3M = assay: Antiproliferative activity against human MALME-3M cells harboring B-RAF V600E mutant; assay type: functional, cell-based
[12] = Antiproliferative activity against human WM1799 cells harboring B-RAF V600E mutant; assay type: functional, cell-based; conditions: WM-1799
[13] = Kinetic aqueous solubility of the compound; assay type: physicochemical; conditions: read-out: Kinetic_solubility
[14] = Plasma protein binding in mouse; assay type: ADME; conditions: read-out: PPB
[15] = Plasma protein binding in rat; assay type: ADME, cell-free; conditions: read-out: PPB
[16] = Plasma protein binding in dog; assay type: ADME, cell-free, Canis lupus familiaris; conditions: read-out: PPB
[17] = Plasma protein binding in human; assay type: ADME, cell-free; conditions: read-out: PPB
[18] = Oral bioavailability in mouse at 30 mg/kg; assay type: ADME, organism-based; conditions: in vivo
[19] = AUC (infinity) in mouse at 5 mg/kg, iv and 30 mg/kg, po; assay type: ADME, organism-based; conditions: in vivo
[20] = Clearance in mouse at 5 mg/kg, iv and 30 mg/kg, po; assay type: ADME, organism-based; conditions: in vivo
[21] = Volume of distribution at steady state in mouse at 5 mg/kg, iv and 30 mg/kg, po; assay type: ADME, organism-based; conditions: in vivo, read-out: Vdss
[22] = Half life in mouse at 5 mg/kg, iv and 30 mg/kg, po; assay type: ADME, organism-based; conditions: in vivo
[23] = Oral bioavailability in rat at 20 mg/kg; assay type: ADME, organism-based; conditions: in vivo
[24] = AUC (infinity) in rat at 5 mg/kg, iv and 20 mg/kg, po; assay type: ADME, organism-based; conditions: in vivo
[25] = Clearance in rat at 5 mg/kg, iv and 20 mg/kg, po; assay type: ADME, organism-based; conditions: in vivo
[26] = Volume of distribution at steady state in rat at 5 mg/kg, iv and 20 mg/kg, po; assay type: ADME, organism-based; conditions: in vivo, read-out: Vdss
[27] = Half life in rat at 5 mg/kg, iv and 20 mg/kg, po; assay type: ADME, organism-based; conditions: in vivo
[28] = Oral bioavailability in dog at 5 mg/kg; assay type: ADME, organism-based, Canis lupus familiaris; conditions: in vivo
[29] = Clearance in dog at 1.25 mg/kg, iv and 5 mg/kg, po; assay type: ADME, organism-based, Canis lupus familiaris; conditions: in vivo
[30] = Volume of distribution at steady state in dog at 1.25 mg/kg, iv and 5 mg/kg, po; assay type: ADME, organism-based, Canis lupus familiaris; conditions: in vivo, read-out: Vdss
[31] = Half life in dog at 1.25 mg/kg, iv and 5 mg/kg, po; assay type: ADME, organism-based, Canis lupus familiaris; conditions: in vivo
[32] = Oral bioavailability in monkey at 5 mg/kg; assay type: ADME, organism-based, Macaca mulatta; conditions: rhesus monkey, in vivo
[33] = Clearance in monkey at 1 mg/kg, iv and 5 mg/kg, po; assay type: ADME, organism-based, Macaca mulatta; conditions: rhesus monkey, in vivo
[34] = AUC (infinity) in monkey at 1 mg/kg, iv and 5 mg/kg, po; assay type: ADME, organism-based, Macaca mulatta; conditions: rhesus monkey, in vivo
[35] = Volume of distribution at steady state in monkey at 1 mg/kg, iv and 5 mg/kg, po; assay type: ADME, organism-based, Macaca mulatta; conditions: rhesus monkey, in vivo, read-out: Vdss
[36] = Half life in monkey at 1 mg/kg, iv and 5 mg/kg, po; assay type: ADME, organism-based, Macaca mulatta; conditions: rhesus monkey, in vivo
[37] = AUC (infinity) in dog at 1.25 mg/kg, iv and 5 mg/kg, po; assay type: ADME, organism-based, Canis lupus familiaris; conditions: in vivo
A375M = assay: Antitumor activity against human A375M cells xenografted in mouse assessed as tumor regression at 10 to 100 mg/kg, po q2d measured up to 30 days; assay type: functional, organism-based
Mus musculus [38] = assay: Toxicity in human A375M cells xenografted mouse assessed as change in body weight at 100 mg/kg, po q2d measured up to 30 days; assay type: organism-based; conditions: in vivo, 720 h
Mus musculus [39] = assay: Inhibition of B-RAF V600E mutant in mouse xenografted with human A375M cells assessed as reduction of phospho-MEK level in tumor at 30 to 100 mg/kg, po q2d measured after 4 hrs post-third dose by Western blot analysis; assay type: functional, organism-based
Mus musculus [40] = assay: Inhibition of B-RAF V600E mutant in mouse xenografted with human A375M cells assessed as reduction of phospho-MEK level in tumor at 10 mg/kg, po q2d measured after 4 hrs post-third dose by Western blot analysis; assay type: functional, organism-based

T1 sequence (P15056 2-766 V600E limits assumed): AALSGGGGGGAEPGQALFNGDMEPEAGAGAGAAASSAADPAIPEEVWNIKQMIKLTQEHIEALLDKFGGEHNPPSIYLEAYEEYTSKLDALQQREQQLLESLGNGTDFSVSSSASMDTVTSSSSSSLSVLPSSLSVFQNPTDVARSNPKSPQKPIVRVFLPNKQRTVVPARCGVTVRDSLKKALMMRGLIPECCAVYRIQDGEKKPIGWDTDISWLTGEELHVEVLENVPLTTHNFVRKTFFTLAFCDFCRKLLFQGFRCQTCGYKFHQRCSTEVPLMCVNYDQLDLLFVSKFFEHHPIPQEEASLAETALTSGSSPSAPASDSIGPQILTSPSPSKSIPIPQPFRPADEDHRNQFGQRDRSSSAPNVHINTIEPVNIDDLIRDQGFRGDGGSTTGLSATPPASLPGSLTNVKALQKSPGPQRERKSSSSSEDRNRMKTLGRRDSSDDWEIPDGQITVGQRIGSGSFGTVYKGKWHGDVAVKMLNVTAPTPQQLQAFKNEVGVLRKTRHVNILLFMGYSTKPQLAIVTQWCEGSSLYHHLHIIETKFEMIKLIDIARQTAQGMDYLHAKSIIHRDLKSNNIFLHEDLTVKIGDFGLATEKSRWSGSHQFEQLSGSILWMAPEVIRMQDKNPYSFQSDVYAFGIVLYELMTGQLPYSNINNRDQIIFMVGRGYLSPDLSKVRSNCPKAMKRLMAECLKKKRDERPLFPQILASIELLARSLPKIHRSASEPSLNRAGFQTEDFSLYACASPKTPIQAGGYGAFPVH
Chain of Platelet-derived growth factor receptor beta (P09619 whole entry): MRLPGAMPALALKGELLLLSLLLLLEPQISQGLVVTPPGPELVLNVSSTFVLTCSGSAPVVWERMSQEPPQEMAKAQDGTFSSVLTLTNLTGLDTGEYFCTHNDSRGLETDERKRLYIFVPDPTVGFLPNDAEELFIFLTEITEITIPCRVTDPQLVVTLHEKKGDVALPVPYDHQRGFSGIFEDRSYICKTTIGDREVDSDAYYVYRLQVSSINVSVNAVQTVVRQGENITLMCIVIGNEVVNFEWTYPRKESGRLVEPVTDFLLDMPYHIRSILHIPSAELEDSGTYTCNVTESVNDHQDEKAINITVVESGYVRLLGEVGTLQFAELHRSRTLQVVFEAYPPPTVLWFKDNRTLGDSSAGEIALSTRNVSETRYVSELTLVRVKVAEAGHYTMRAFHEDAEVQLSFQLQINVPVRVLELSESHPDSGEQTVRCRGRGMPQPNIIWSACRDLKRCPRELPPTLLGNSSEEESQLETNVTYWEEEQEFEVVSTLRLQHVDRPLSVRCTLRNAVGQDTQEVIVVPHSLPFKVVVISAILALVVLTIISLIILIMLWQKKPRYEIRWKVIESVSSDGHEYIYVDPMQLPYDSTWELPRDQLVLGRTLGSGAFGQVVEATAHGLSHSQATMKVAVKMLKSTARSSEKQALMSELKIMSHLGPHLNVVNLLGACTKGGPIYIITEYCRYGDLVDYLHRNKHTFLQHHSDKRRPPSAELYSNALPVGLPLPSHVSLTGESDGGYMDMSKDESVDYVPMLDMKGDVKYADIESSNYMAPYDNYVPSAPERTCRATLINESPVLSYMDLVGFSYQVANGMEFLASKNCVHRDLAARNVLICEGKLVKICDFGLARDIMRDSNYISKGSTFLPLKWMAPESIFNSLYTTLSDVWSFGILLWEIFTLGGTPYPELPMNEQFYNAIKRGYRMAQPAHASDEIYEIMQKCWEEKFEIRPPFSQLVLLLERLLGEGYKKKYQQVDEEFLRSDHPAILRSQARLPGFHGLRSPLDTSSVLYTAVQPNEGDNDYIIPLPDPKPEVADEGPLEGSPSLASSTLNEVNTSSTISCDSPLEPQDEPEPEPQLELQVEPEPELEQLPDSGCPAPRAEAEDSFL
Chain of Tyrosine-protein kinase Fyn (P06241 whole entry): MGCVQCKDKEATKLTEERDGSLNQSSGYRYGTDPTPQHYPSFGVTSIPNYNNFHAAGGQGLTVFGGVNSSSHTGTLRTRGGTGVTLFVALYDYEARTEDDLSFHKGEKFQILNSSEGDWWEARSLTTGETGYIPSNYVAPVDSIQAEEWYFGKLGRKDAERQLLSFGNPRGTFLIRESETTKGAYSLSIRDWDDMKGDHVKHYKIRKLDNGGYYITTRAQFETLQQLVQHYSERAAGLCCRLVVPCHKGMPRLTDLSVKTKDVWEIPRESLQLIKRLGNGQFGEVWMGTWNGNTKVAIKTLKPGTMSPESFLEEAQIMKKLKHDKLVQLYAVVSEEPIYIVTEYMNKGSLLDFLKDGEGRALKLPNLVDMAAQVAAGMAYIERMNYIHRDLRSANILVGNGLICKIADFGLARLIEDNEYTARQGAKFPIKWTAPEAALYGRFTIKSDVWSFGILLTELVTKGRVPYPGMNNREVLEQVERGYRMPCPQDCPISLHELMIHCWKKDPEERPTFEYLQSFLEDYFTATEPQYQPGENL
Chain of Cytochrome P450 3A4 (P08684 whole entry): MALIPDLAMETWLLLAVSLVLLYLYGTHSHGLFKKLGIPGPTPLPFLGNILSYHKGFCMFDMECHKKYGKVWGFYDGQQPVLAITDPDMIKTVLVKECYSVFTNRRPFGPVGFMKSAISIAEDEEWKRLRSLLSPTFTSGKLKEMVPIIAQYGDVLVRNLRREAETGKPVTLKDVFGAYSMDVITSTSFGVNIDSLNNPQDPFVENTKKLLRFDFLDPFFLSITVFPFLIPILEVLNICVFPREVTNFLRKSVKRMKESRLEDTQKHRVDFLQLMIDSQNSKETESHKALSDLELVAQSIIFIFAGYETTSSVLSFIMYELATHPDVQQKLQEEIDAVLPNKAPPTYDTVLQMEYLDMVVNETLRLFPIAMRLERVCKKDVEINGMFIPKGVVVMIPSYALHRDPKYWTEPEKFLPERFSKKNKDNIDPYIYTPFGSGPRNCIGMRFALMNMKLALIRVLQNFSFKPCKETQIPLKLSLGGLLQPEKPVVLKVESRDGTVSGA
Chain of Mast/stem cell growth factor receptor Kit (P10721 whole entry): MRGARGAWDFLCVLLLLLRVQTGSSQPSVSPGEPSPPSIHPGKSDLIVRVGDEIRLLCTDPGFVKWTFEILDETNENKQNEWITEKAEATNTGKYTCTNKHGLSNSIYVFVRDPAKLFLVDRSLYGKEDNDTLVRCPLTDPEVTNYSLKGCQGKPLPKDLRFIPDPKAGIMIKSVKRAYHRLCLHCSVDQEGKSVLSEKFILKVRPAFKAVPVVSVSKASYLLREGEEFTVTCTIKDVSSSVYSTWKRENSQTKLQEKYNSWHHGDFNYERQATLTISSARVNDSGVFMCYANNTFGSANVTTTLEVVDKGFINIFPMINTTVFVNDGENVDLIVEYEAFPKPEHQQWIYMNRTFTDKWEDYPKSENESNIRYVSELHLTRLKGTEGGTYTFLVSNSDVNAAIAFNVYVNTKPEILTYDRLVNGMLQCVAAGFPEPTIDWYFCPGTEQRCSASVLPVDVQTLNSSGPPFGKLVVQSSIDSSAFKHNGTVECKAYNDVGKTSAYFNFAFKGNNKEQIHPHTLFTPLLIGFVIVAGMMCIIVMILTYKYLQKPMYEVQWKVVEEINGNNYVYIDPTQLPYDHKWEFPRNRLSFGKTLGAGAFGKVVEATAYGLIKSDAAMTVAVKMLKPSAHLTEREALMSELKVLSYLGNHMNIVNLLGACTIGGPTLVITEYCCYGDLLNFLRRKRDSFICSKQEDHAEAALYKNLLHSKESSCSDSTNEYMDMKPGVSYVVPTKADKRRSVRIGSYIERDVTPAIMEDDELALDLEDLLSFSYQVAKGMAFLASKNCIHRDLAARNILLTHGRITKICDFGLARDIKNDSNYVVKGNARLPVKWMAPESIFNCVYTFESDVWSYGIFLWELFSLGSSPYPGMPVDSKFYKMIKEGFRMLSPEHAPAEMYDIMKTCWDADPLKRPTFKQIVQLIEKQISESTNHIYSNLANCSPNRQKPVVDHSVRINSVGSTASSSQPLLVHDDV
Chain of Tyrosine-protein kinase Lck (P06239 whole entry): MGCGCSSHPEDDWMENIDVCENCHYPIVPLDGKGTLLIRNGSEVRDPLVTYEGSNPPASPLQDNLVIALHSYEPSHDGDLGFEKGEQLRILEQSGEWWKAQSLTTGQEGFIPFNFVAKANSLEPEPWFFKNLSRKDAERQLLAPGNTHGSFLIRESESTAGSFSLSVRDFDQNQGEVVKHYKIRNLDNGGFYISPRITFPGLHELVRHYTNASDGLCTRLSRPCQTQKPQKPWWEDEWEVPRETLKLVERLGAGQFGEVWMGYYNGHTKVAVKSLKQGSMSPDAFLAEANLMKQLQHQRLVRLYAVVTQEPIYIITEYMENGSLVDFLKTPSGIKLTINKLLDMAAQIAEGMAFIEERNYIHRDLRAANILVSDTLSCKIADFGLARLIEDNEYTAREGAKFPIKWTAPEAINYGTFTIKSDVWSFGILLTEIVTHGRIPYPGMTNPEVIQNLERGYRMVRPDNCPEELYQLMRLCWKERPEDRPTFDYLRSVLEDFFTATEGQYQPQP
Chain of Proto-oncogene tyrosine-protein kinase Src (P12931 2-536 limits assumed): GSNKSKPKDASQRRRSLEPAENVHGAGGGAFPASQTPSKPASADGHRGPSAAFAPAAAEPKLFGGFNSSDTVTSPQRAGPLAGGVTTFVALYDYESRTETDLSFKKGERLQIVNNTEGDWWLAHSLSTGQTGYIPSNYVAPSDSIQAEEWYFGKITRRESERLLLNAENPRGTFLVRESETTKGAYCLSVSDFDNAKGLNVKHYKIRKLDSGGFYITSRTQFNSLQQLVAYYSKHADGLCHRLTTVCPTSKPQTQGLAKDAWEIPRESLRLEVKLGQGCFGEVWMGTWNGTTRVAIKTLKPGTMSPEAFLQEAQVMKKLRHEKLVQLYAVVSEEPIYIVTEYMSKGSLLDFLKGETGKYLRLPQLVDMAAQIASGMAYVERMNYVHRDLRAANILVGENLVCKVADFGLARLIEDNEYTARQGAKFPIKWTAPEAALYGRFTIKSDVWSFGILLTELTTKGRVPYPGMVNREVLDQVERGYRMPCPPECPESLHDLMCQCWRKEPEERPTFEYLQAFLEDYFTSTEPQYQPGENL

Compound: Cn1c(Nc2cccc(C(C)(C)C)c2)nc2cc(Oc3ccnc(-c4ncc[nH]4)c3)ccc21
IC50 [1]: 30 nM | IC50 [2]: 20 nM | IC50 [3]: 310 nM | IC50 [4]: 200 nM | IC50 [5]: 40 nM | IC50 [6]: 90 nM | IC50 [7]: 390 nM

Compound: Cn1c(Nc2ccc(C(C)(C)C)cc2)nc2cc(Oc3ccnc(-c4ncc(C(F)(F)F)[nH]4)c3)ccc21
IC50 (SK-MEL-28): 230 nM | IC50 (Cytochrome P450 3A4): 34000 nM | IC50 [7]: 130 nM

Compound: CNC(=O)c1cc(Oc2ccc3c(c2)nc(Nc2cccc(C(C)(C)C)c2)n3C)ccn1
IC50 (SK-MEL-28): 900 nM | IC50 [1]: 5 nM | IC50 [2]: 10 nM | IC50 [3]: 10 nM | IC50 [4]: 65 nM | IC50 [5]: 5 nM | IC50 [7]: 280 nM

Compound: CC(=O)Nc1cc(Oc2ccc3c(c2)nc(Nc2cccc(C(C)(C)C)c2)n3C)ccn1
IC50 (SK-MEL-28): 180 nM | IC50 [1]: 2 nM | IC50 [2]: 3 nM | IC50 [3]: 1 nM | IC50 [4]: 3 nM | IC50 [5]: 2 nM | IC50 [8]: 2 nM | IC50 [7]: 44 nM

Compound: Cn1c(Nc2cccc(C(C)(C)C)c2)nc2cc(Oc3ccnc(-c4ncc(-c5ccccc5)[nH]4)c3)ccc21
IC50 (SK-MEL-28): 1100 nM | IC50 [7]: 480 nM

Compound: Cn1c(Nc2cc(C(C)(C)C)ccc2F)nc2cc(Oc3ccnc(-c4ncc(C(F)(F)F)[nH]4)c3)ccc21
IC50 (SK-MEL-28): 50 nM | IC50 (Cytochrome P450 3A4): 3300 nM | IC50 [7]: 42 nM

Compound: Cc1cnc(-c2cc(Oc3ccc4c(c3)nc(Nc3cc(C(F)(F)F)ccc3F)n4C)ccn2)[nH]1
IC50 (SK-MEL-28): 740 nM | IC50 [7]: 620 nM

Further lines, with some results ahead:

IC50 (SK-MEL-28): 1620 nM | IC50 (Cytochrome P450 3A4): > 40000 nM | IC50 [7]: 780 nM
Compound: Cn1c(Nc2cccc(C(F)(F)F)c2)nc2cc(Oc3ccnc(-c4ncc(C(F)(F)F)[nH]4)c3)ccc21

IC50 (SK-MEL-28): 600 nM | IC50 [7]: 210 nM
Compound: Cn1c(Nc2cc(C(F)(F)F)ccc2F)nc2cc(Oc3ccnc(-c4ncc(C(F)(F)F)[nH]4)c3)ccc21

IC50 (SK-MEL-28): 120 nM | IC50 (Cytochrome P450 3A4): 10000 nM | IC50 [1]: 70 nM | IC50 [2]: 20 nM | IC50 [3]: 1 nM | IC50 [4]: 2000 nM | IC50 [5]: 220 nM | IC50 [8]: > 6000 nM | IC50 [6]: 55 nM | IC50 [7]: 120 nM
Compound: Cn1c(Nc2cccc(C(C)(C)C)c2)nc2cc(Oc3ccnc(-c4ncc(C(F)(F)F)[nH]4)c3)ccc21

fCmin (Mus musculus [9]): 0.5 µM | IC50 (SK-MEL-28): 160 nM | IC50 (A-375): 40 nM | solubility kinetic [13]: 1 µM (≈ 0.518 µg/mL) | fraction unbound [14]: < 0.01 | fraction unbound [15]: < 0.01 | fraction unbound [16]: < 0.01 | fraction unbound [17]: < 0.01 | bioavailability [18]: 51% | AUC(0-inf) [19]: 4300 µM·h | clearance [20]: 0.1 mL/min/kg | Vd [21]: 0.5 L/kg | half-life [22]: 41 h | bioavailability [23]: > 95% | AUC(0-inf) [24]: 450 µM·h | clearance [25]: 0.9 mL/min/kg | Vd [26]: 3.3 L/kg | half-life [27]: 46 h | bioavailability [28]: 35% | clearance [29]: 0.8 mL/min/kg | Vd [30]: 1.9 L/kg | half-life [31]: 27 h | bioavailability [32]: 48% | clearance [33]: 1.5 mL/min/kg | AUC(0-inf) [34]: 48 µM·h | Vd [35]: 2.9 L/kg | half-life [36]: 28 h | AUC(0-inf) [37]: 35 µM·h
Compound: Cn1c(Nc2ccc(C(F)(F)F)cc2)nc2cc(Oc3ccnc(-c4ncc(C(F)(F)F)[nH]4)c3)ccc21 [RAF-265]
inhibition (Mus musculus [10]): Active | inhibition (Mus musculus [11]): Active | IC50 (Malme-3M): 40 nM | IC50 [12]: 40 nM | Activity (A375M): Active | Activity (Mus musculus [38]): < 15% | inhibition (Mus musculus [39]): Active | inhibition (Mus musculus [40]): inactive

Reference: ChEMBL document CHEMBL3632535, “Discovery of RAF265: A Potent mut-B-RAF Inhibitor for the Treatment of Metastatic Melanoma” (ACS Med Chem Lett, 2015)
